Our source for the inhibition, IC50 and Activity values is ChEMBL document CHEMBL1152510, “Melanogenesis inhibitors from the rhizomes of Alpinia officinarum in B16 melanoma cells” (Bioorg Med Chem, 2009).

Activity calls are given as the source filed them. The rule behind the calls is not given here.

Assay [1] has as its target T1, Tyrosinase (Agaricus bisporus) (UniProt O42713).
T1 sequence (whole entry): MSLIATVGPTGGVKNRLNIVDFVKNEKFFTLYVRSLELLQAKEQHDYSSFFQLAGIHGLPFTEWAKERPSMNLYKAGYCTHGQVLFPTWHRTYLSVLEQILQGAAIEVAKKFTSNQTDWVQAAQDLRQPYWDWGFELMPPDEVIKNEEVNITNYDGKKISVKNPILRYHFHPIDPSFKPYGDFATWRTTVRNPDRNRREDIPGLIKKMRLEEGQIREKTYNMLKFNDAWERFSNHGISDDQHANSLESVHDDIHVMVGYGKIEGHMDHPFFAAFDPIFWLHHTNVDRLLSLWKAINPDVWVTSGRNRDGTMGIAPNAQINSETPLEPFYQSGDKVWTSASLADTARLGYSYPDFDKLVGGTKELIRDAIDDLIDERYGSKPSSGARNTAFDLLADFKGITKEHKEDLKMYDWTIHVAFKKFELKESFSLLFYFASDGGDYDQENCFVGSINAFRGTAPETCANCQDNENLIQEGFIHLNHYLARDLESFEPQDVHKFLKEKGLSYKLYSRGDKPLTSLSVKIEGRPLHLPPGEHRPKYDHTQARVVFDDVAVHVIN
Description: Inhibition of mushroom tyrosinase at 3 uM.

The next assay concerns the target T2, Tyrosinase (Agaricus bisporus, UniProt O42713).
T2 sequence (O42713 whole entry): T1 sequence (whole entry)

Assay [2] can be described thus: cells. The conditions noted are these: Mus musculus, B16-4A5, 68 h, read-out: INH.
Description: Inhibition of theophylline-stimulated mouse B16-4A5 cell proliferation assessed as cell viability at 30 uM after 68 hrs by WST8 assay
Another assay deals with B16. As to the kind of experiment: cells. The conditions noted are these: Mus musculus, B16, 72 h.
A short description of assay [3]: cells. The following applies: Mus musculus, B16-4A5, 68 h.
Description: Inhibition of theophylline-stimulated mouse B16-4A5 cell proliferation assessed as cell viability after 68 hrs by WST8 assay
Assay [4] is described as follows: cells. The following applies: Mus musculus, B16-4A5, 72 h, read-out: INH.
Description: Inhibition of melanogenesis in theophylline-stimulated mouse B16-4A5 cells at 10 uM after 72 hrs
Assay [5] can be described thus: cells. The conditions noted are these: Mus musculus, B16-4A5, 68 h, read-out: INH. This is another data set of the same source.
Description: Inhibition of theophylline-stimulated mouse B16-4A5 cell proliferation assessed as cell viability at 100 uM after 68 hrs by WST8 assay
A short description of assay [6]: cells. The following applies: Mus musculus, B16-4A5, 72 h, read-out: INH. This is another data set of the same source.
Description: Inhibition of melanogenesis in theophylline-stimulated mouse B16-4A5 cells at 100 uM after 72 hrs
The nature of assay [7]: cells. The conditions noted are these: Mus musculus, B16-4A5, 68 h, read-out: INH. The source holds these as a separate data set.
Description: Inhibition of theophylline-stimulated mouse B16-4A5 cell proliferation assessed as cell viability at 10 uM after 68 hrs by WST8 assay
Assay [8] can be described thus: cells. The following applies: Mus musculus, B16-4A5, 72 h, read-out: INH. The source holds these as a separate data set.
Description: Inhibition of melanogenesis in theophylline-stimulated mouse B16-4A5 cells at 3 uM after 72 hrs
The nature of assay [9]: cells. The conditions noted are these: Mus musculus, B16-4A5, 72 h, read-out: INH. The source holds these as a separate data set.
Description: Inhibition of melanogenesis in theophylline-stimulated mouse B16-4A5 cells at 1 uM after 72 hrs
Assay [10] in a line: cells. The conditions noted are these: Mus musculus, B16-4A5, 68 h, read-out: INH. This is another data set of the same source.
Description: Inhibition of theophylline-stimulated mouse B16-4A5 cell proliferation assessed as cell viability at 1 uM after 68 hrs by WST8 assay
Assay [11] can be described thus: cells. The following applies: Mus musculus, B16-4A5, 68 h, read-out: INH. The source holds these as a separate data set.
Description: Inhibition of theophylline-stimulated mouse B16-4A5 cell proliferation assessed as cell viability at 3 uM after 68 hrs by WST8 assay
In assay [12] the target is T1, Tyrosinase (Agaricus bisporus). Description: Inhibition of mushroom tyrosinase at 1 uM.
Assay [13] in a line: cells. The conditions noted are these: Mus musculus, B16-4A5, 72 h, read-out: INH. This is another data set of the same source.
Description: Inhibition of melanogenesis in theophylline-stimulated mouse B16-4A5 cells at 30 uM after 72 hrs
Assay [14] deals with B16-4A5. As to the kind of experiment: Inhibition of microphthalmia-associated transcriptional factor level in theophylline-stimulated mouse B16-4A5 cells at 1 to 30 uM after 24 hrs. Type of assay: functional, cell-based.
Assay [15] has as its system B16-4A5. Description: Inhibition of TRP1 mRNA expression in theophylline-stimulated mouse B16-4A5 cells at 1 to 30 uM after 72 hrs. It is filed as functional, cell-based.
In assay [16] the test system is B16-4A5. Description: Inhibition of TRP2 mRNA expression in theophylline-stimulated mouse B16-4A5 cells at 1 to 30 uM after 72 hrs. Type of assay: functional, cell-based.
Assay [17] concerns B16-4A5. As to the kind of experiment: Inhibition of tyrosinase mRNA expression in theophylline-stimulated mouse B16-4A5 cells at 1 to 30 uM after 72 hrs. It is filed as functional, cell-based.
Assay [18] deals with B16-4A5. As to the kind of experiment: Inhibition of microphthalmia-associated transcriptional factor level in theophylline-stimulated mouse B16-4A5 cells at 1 to 30 uM after 48 hrs. Type of assay: functional, cell-based.

As for `O=C(CCc1ccccc1)C[C@H](O)CCc1ccccc1`, the inhibition was determined as 2.5% in assay [1] and 3.3% in [12]. Besides, the concentration for half-maximal inhibition (IC50) was over 100 µM at Tyrosinase, 48 µM in the assay with B16 and over 100 µM in “cells [3]”. Moreover, the figures for the inhibition at 30 µM in “cells [2]” and in “cells [13]” were -7.6% and 33%, respectively. Further, the inhibition at 10 µM is 10.6% in the assay “cells [4]” and -4.7% in “cells [7]”. Moreover, the inhibition at 100 µM in the assay “cells [5]” was -7.6%; in the assay “cells [6]”, 67.8%. Further, the results for the inhibition at 3 µM in “cells [8]” and in the assay “cells [11]” were 6.8% and 0.7%, respectively. Besides, the inhibition at 1 µM in “cells [9]” was -3.3%; in the assay “cells [10]” it was 0%.

With `COc1cc(CC/C=C/C(=O)CCc2ccccc2)ccc1O`, the inhibition came out at 3% in assay [1] and 3.2% in [12]. Besides, the results for the IC50 against Tyrosinase, in the assay on B16 and in “cells [3]” were over 100 µM, 10 µM and 60 µM, respectively. Further, the result with B16-4A5 [14] was inactive. For the same compound, the result in the assay with B16-4A5 [15], with B16-4A5 [16], with B16-4A5 [17] and in the assay with B16-4A5 [18] was Active. The inhibition at 30 µM was determined as 2.6% in the assay “cells [2]” and 80.1% in “cells [13]”. Moreover, the inhibition at 10 µM in the assay “cells [4]” stood at 49.3%; in the assay “cells [7]”, 5.1%. Besides, in “cells [5]”, the inhibition at 100 µM was found to be 90.6%. For the same compound, the inhibition at 3 µM amounted to 22.5% in “cells [8]” and 3.8% in the assay “cells [11]”. Further, the inhibition at 1 µM is 11.6% in the assay “cells [9]” and 3.2% in “cells [10]”.

In the case of `COc1cc(CC[C@@H](O)CC(=O)CCc2ccccc2)ccc1O`, the inhibition in assay [1] was 4.7%; in assay [12], 2.3%. Besides, the IC50 against Tyrosinase was over 100 µM; in the assay on B16, 30 µM; in the assay “cells [3]” it was over 100 µM. For the same compound, the inhibition at 30 µM amounted to 15.1% in “cells [2]” and 49.2% in “cells [13]”. Moreover, the results for the inhibition at 10 µM in “cells [4]” and in “cells [7]” were 23.4% and 11.8%, respectively. Also, the inhibition at 100 µM in the assay “cells [5]” came to 20.8%; in “cells [6]”, 81.1%. The inhibition at 3 µM in the assay “cells [8]” was 8.9%; in the assay “cells [11]”, 11.7%. In addition, the inhibition at 1 µM in “cells [9]” came out at 7.5%; in “cells [10]”, 5.3%.

Take `O[C@H](CCc1ccccc1)C[C@H](O)CCc1ccccc1`: the results for the inhibition in [1] and in assay [12] were 4.6% and 2.7%, respectively. For the same compound, the IC50 against Tyrosinase is over 100 µM; with B16, 33 µM; in the assay “cells [3]” it was 60 µM. Also, the inhibition at 30 µM was -2.3% in “cells [2]” and 48.1% in the assay “cells [13]”. The figures for the inhibition at 10 µM in “cells [4]” and in “cells [7]” were 7.2% and 1.6%, respectively. The inhibition at 100 µM in “cells [5]” is 90.2%. Further, the inhibition at 3 µM in “cells [8]” was 11.1%; in “cells [11]”, -0.5%. Besides, the inhibition at 1 µM in the assay “cells [9]” is 10.4%; in the assay “cells [10]” it was 1.1%.

On to `O=C1c2c(O)cc(O)cc2O[C@H](c2ccc(O)cc2)[C@H]1O` [DIHYDROKAEMPFEROL], for which the inhibition in assay [1] was found to be 4.4%; in assay [12], 6%. The values for the IC50 against Tyrosinase, in the assay with B16 and in the assay “cells [3]” were over 100 µM, 84 µM and over 100 µM, respectively. Further, the inhibition at 30 µM in the assay “cells [2]” was 23.9%; in the assay “cells [13]” it was 20.5%. In addition, the inhibition at 10 µM in “cells [4]” was found to be 12.7%; in the assay “cells [7]”, 13.8%. For the same compound, the values for the inhibition at 100 µM in “cells [5]” and in “cells [6]” were 30.5% and 56%, respectively. For the same compound, the inhibition at 3 µM was 1.2% in “cells [8]” and 5.9% in the assay “cells [11]”. Also, the inhibition at 1 µM in “cells [9]” was 8.7%; in “cells [10]”, 0.2%.

For `O=c1c(O)c(-c2ccccc2)oc2cc(O)cc(O)c12` [GALANGIN], the inhibition stood at 26.6% in assay [1] and 28% in assay [12]. Further, the 50% inhibitory concentration (IC50) against Tyrosinase was over 100 µM; with B16, 17 µM; in “cells [3]” it was 100 µM. In addition, in the assay on B16-4A5 [14], the outcome was inactive. For the same compound, the result in the assay with B16-4A5 [15], with B16-4A5 [16], with B16-4A5 [17] and with B16-4A5 [18] was Active. Besides, the inhibition at 30 µM in the assay “cells [2]” was found to be 12.7%; in the assay “cells [13]”, 87.1%. For the same compound, the inhibition at 10 µM in the assay “cells [4]” was found to be 43.4%; in the assay “cells [7]”, 11.4%. Besides, the inhibition at 100 µM in “cells [5]” was found to be 53.3%. Further, the inhibition at 3 µM was -5.3% in “cells [8]” and 7.1% in the assay “cells [11]”. The inhibition at 1 µM was -0.5% in the assay “cells [9]” and 1.7% in “cells [10]”.

Take `O=c1c(O)c(-c2ccc(O)cc2)oc2cc(O)cc(O)c12` [KAEMPFEROL]: the figures for the inhibition in assay [1] and in [12] were 7.6% and 5.7%, respectively. Moreover, the IC50 against Tyrosinase is over 100 µM; with B16, 20 µM; in “cells [3]” it was 88 µM. The inhibition at 30 µM in the assay “cells [2]” came to 26.1%; in “cells [13]”, 61.1%. The inhibition at 10 µM in the assay “cells [4]” was 23.4%; in “cells [7]”, 23.5%. The inhibition at 100 µM in “cells [5]” was found to be 56%. The values for the inhibition at 3 µM in “cells [8]” and in “cells [11]” were 9.9% and 18.1%, respectively. In addition, the results for the inhibition at 1 µM in “cells [9]” and in “cells [10]” were 8.3% and 5.6%, respectively.

As for `O=C(O)CCc1ccccc1` [PHENYL PROPIONIC ACID], the inhibition in assay [1] turned out to be 5.3%; in assay [12] it was 3.8%. Further, the IC50 on Tyrosinase, in the assay on B16 and in the assay “cells [3]” was over 100 µM in each case. Further, the values for the inhibition at 30 µM in the assay “cells [2]” and in the assay “cells [13]” were 1.3% and 16.9%, respectively. The values for the inhibition at 10 µM in the assay “cells [4]” and in “cells [7]” were 3.8% and 1.2%, respectively. Further, the results for the inhibition at 100 µM in “cells [5]” and in “cells [6]” were 2.9% and 20.9%, respectively. Further, the inhibition at 3 µM is 6.3% in the assay “cells [8]” and -2.8% in the assay “cells [11]”. The inhibition at 1 µM in “cells [9]” was 0.1%; in the assay “cells [10]”, -1.4%.

As for `O=C1c2c(O)cc(O)cc2O[C@H](c2ccccc2)[C@H]1O` [PINOBAKSIN], the inhibition was determined as 2.8% in assay [1] and 1.8% in assay [12]. Also, the IC50 against Tyrosinase, in the assay with B16 and in the assay “cells [3]” was over 100 µM each time. Further, the inhibition at 30 µM in the assay “cells [2]” was 7.1%; in the assay “cells [13]”, 16.9%. Further, the figures for the inhibition at 10 µM in “cells [4]” and in “cells [7]” were 10.8% and 7%, respectively. Also, the inhibition at 100 µM in the assay “cells [5]” came out at 6.9%; in “cells [6]”, 47.7%. Further, the inhibition at 3 µM is -5.8% in the assay “cells [8]” and 3.6% in the assay “cells [11]”. Besides, the inhibition at 1 µM in the assay “cells [10]” came to 2.2%.

Take `COc1cc(CCC(C)=O)ccc1O` [ZINGERONE]: the inhibition in assay [1] amounted to 2.1%; in assay [12] it was 1.4%. In addition, the concentration for half-maximal inhibition (IC50) against Tyrosinase, in the assay with B16 and in “cells [3]” was over 100 µM throughout. Further, the inhibition at 30 µM is -8.8% in the assay “cells [2]” and 8.3% in “cells [13]”. The inhibition at 10 µM is 6.1% in “cells [4]” and -8% in the assay “cells [7]”. In addition, the inhibition at 100 µM in the assay “cells [5]” is -6.1%; in “cells [6]” it was 15.5%. Besides, the inhibition at 3 µM was 3.7% in “cells [8]” and -2.8% in the assay “cells [11]”. Also, the figures for the inhibition at 1 µM in “cells [9]” and in “cells [10]” were 7.6% and -0.5%, respectively.

In general, IC50 refers to the concentration needed to halve the response being measured. A high value points to weaker potency.
